Laboratory results taken from publication PMC7782793, “Hydroxamic acid-modified peptide microarrays for profiling isozyme-selective interactions and inhibition of histone deacetylases” (Nature Communications, 2021).
Values joined by “and” are separate entries in the source; they are usually repeats but may differ in a detail not shown here. Equal values may be shown once. Marks after values point to notes of the source that are not given here. Non-standard residues stand in square brackets, D forms with d. Residues, ends and D or L forms follow the SMILES beside them. *: point of attachment. Asu = N[C@@H](CCCCCC(=O)O)C(=O)O; NHOH = ON*

Tests used:
[1] = biological target: T1, HDAC2 (Homo sapiens, UniProt Q92769); assay: HDAC inhibition assay (fluorogenic, Ac-Leu-Gly-Lys(Ac)-AMC); format: biochemical; conditions: for HDAC2 dose-response data (relative enzyme activity), Fig. 6 + S. Fig. 10: duplicate columns
T1 construct: HDAC2 (full length, C-terminal His tag, BPS Bioscience, cat. #: 50002); purchased BPS Bioscience 50002
T1 sequence (Q92769 whole entry): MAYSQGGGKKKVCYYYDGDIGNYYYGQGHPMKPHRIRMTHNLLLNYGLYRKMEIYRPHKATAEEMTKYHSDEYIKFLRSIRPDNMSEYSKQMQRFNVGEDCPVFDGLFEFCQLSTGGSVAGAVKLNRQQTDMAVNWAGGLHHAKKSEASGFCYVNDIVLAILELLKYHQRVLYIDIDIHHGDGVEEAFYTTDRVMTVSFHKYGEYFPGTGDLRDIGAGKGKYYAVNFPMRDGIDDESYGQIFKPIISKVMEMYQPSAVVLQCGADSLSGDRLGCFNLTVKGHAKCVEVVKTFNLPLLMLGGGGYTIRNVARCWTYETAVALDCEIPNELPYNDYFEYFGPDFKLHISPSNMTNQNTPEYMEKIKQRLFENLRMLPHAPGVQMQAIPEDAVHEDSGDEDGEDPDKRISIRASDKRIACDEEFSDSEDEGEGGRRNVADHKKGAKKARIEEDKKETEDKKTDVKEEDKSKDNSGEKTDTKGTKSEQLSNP

[2] = biological target: T2, HDAC1 (Homo sapiens, UniProt Q13547); assay: as above; format: biochemical; conditions: for HDAC1 dose-response data (relative enzyme activity), Fig. 6 + S. Fig. 10: duplicate columns
T2 construct: HDAC1 (full length, C-terminal His tag, C-terminal FLAG tag, BPS Bioscience, cat. #: 50051); FLAG (C); purchased BPS Bioscience 50051
T2 sequence (Q13547 whole entry): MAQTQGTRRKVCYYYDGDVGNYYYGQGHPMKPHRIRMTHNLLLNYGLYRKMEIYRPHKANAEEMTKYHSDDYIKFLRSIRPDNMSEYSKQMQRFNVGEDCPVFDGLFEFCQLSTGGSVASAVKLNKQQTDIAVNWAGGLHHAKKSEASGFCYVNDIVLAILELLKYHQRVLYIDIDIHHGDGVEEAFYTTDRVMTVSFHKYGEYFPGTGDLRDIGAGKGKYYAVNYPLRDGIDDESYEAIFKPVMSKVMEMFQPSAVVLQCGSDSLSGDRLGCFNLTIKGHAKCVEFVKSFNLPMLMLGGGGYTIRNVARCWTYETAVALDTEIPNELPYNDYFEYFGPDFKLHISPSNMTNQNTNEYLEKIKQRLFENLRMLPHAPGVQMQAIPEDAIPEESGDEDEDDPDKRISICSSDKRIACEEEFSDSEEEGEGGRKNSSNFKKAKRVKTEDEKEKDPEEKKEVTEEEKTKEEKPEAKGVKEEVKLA

[3] = biological target: T3, HDAC8 (Homo sapiens, UniProt Q9BY41); assay: HDAC inhibition assay (fluorogenic, Ac-Leu-Gly-Lys(Tfa)-AMC); format: biochemical; conditions: for HDAC8 dose-response data (relative enzyme activity, replicate values), Fig. 6 + S. Fig. 10: two replicate columns per inhibitor; for HDAC8 dose-response data (relative enzyme activity), Fig. 6 + S. Fig. 10: duplicate columns
T3 construct: HDAC8 (full length, C-terminal His tag, BPS Bioscience, cat. #: 50008); purchased BPS Bioscience 50008
T3 sequence (Q9BY41 1-377): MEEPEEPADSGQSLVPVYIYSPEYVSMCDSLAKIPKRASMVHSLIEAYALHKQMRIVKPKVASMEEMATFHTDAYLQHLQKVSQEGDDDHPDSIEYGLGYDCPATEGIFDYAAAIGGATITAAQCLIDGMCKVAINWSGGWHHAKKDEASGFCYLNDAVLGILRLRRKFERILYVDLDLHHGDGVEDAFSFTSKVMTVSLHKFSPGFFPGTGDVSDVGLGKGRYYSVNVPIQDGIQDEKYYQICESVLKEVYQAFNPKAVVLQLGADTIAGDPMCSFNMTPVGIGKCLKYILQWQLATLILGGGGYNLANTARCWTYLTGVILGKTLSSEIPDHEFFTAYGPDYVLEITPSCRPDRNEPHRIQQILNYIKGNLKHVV

[4] = biological target: T1, HDAC2; assay: Recombinant HDAC µSPOT microarray binding assay
Procedure: (§1) Experiments were performed twice, data were obtained with Array Analyze software (Active Motif), and data analysis and representation were performed with the GraphPad Prism 7 software. Outliers were curated manually and data were fitted to nonlinear regression [log(agonist) vs. response—variable slope (four parameters)]. […] Non-sigmoidal curves were denoted as not determined (N.D.) The pEC50 values were determined as the concentration of HDAC enzyme required for half-maximal binding signal.

[5] = biological target: T4, HDAC3/NCoR2 (Homo sapiens, UniProt O15379); assay: Recombinant HDAC µSPOT microarray binding assay;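 note: peptide spots on cellulose slides incubated with rising HDAC enzyme concentrations, imaged together, four-parameter logistic fit, EC50 is enzyme concentration giving half-maximal binding signal, two experiments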
T4 construct: HDAC3/NCoR2 (full length, C-terminal His tag, NCoR2 N-terminal GST tag); purchased BPS Bioscience 50003
T4 sequence (O15379 whole entry): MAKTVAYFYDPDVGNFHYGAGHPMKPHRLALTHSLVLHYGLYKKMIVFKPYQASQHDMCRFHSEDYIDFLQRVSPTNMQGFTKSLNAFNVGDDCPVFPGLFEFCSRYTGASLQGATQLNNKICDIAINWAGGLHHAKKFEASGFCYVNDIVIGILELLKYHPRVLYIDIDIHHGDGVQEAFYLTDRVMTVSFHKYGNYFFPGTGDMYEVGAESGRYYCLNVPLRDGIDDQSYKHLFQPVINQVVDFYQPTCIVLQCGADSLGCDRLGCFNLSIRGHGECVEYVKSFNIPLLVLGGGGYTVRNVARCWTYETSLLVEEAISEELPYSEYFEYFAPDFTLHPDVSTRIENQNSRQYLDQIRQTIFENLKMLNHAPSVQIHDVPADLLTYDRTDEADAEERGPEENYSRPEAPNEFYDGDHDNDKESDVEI
T4 sequence (Q9Y618 389-480 partner limits assumed): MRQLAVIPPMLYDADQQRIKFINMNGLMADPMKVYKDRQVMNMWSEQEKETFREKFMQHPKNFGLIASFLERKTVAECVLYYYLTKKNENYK

[6] = biological target: T2, HDAC1; assay: Recombinant HDAC µSPOT microarray binding assay
[7] = biological target: T5, HDAC6 (Homo sapiens, UniProt Q9UBN7); assay: HDAC inhibition assay (fluorogenic, Ac-Leu-Gly-Lys(Ac)-AMC); format: biochemical; conditions: HDAC6, replicates
T5 construct: HDAC6 (full length, BPS Bioscience, cat. #: 50056); purchased BPS Bioscience 50056
T5 sequence (Q9UBN7 1-1215): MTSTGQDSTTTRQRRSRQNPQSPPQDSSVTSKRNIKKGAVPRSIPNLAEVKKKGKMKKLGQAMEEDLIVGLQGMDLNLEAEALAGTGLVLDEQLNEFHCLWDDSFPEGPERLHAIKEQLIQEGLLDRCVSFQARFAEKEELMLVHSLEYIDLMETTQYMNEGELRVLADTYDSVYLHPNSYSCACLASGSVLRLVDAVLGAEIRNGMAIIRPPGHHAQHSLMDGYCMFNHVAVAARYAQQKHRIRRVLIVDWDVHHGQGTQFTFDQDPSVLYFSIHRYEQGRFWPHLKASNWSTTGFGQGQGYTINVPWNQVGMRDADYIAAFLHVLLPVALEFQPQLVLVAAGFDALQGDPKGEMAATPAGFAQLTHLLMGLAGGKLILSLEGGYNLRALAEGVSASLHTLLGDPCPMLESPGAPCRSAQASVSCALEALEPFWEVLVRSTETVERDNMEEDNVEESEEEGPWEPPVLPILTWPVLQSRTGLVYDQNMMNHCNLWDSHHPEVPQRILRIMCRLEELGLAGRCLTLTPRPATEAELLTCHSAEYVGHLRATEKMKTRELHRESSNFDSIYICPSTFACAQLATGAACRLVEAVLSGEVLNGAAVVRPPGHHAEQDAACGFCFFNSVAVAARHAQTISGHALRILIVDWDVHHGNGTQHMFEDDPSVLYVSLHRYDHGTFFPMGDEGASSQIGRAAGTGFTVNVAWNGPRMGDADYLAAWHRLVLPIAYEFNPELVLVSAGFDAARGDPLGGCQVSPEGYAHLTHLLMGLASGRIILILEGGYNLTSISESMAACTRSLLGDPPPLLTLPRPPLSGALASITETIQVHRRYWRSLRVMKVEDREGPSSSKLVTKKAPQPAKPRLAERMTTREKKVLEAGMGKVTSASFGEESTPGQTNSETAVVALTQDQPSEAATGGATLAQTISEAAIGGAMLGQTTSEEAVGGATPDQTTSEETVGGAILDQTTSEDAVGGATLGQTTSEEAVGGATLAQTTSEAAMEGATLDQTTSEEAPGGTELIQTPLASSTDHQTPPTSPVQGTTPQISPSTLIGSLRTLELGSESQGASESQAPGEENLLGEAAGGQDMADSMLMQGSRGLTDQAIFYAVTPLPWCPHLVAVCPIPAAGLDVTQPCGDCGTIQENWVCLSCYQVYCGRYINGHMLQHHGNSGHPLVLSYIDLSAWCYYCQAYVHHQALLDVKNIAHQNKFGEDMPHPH

[8] = biological target: T4, HDAC3/NCoR2; assay: as above; format: biochemical; conditions: for HDAC3 dose-response data (relative enzyme activity), Fig. 6 + S. Fig. 10: duplicate columns
[9] = biological target: T3, HDAC8; assay: Recombinant HDAC µSPOT microarray binding assay
Procedure: as §1

[10] = log[inhibitor(M)] -10,5850266520292*, whole line marked with asterisks

## CC(=O)NCC(=O)NCC(=O)N[C@@H](CCCCCC(=O)NO)C(=O)N[C@@H](C)C(=O)N[C@@H](CCCNC(=N)N)C(=O)N[C@@H](C)C(=O)N[C@@H](CCCCN)C(=O)N[C@@H](C)C(=O)N[C@@H](CCCCN)C(=O)N[C@H](C(=O)N[C@@H](CCCNC(=N)N)C(=O)N[C@@H](CO)C(=O)N[C@@H](CO)C(=O)N[C@@H](CCCNC(=N)N)C(=O)N[C@@H](C)C(=O)NCC(=O)N[C@@H](Cc1c[nH]c2ccccc12)C(N)=O)[C@@H](C)O [9a] (Ac-GG[Asu](NHOH)ARAKAKTRSSRAGW-NH2)
[1]; log[inhibitor(M)] -5
  HDAC2 dose-response data (relative enzyme activity), Fig. 6 + S. Fig. 10: 5.281 and 8.057
[1]; log[inhibitor(M)] -5.69897
  HDAC2 dose-response data (relative enzyme activity), Fig. 6 + S. Fig. 10: 15.9037 and 16.112
[1]; log[inhibitor(M)] -7.79588
  HDAC2 dose-response data (relative enzyme activity), Fig. 6 + S. Fig. 10: 105.562 and 90.7957
[1]; [10]
  HDAC2 dose-response data (relative enzyme activity), Fig. 6 + S. Fig. 10: 99,9428* and 99,2519*
[1]; resynthesized peptide in solution, Cheng-Prusoff, n = 2
  Ki: 0.048 ± 0.0005 µM
[2]
  Ki: 0.0311 ± 0.0002 µM
[2]; log[inhibitor(M)] -5.69897
  HDAC1 dose-response data (relative enzyme activity), Fig. 6 + S. Fig. 10: 7.627 and 13.3733
[2]; log[inhibitor(M)] -6.39794
  HDAC1 dose-response data (relative enzyme activity), Fig. 6 + S. Fig. 10: 29.353 and 31.2435
[2]; log[inhibitor(M)] -7.09691
  HDAC1 dose-response data (relative enzyme activity), Fig. 6 + S. Fig. 10: 58.5172 and 64.5613
[2]; log[inhibitor(M)] -7.79588
  HDAC1 dose-response data (relative enzyme activity), Fig. 6 + S. Fig. 10: 95.7003 and 88.0669
[2]; log[inhibitor(M)] -8.49485
  HDAC1 dose-response data (relative enzyme activity), Fig. 6 + S. Fig. 10: 105.543 and 108.963
[2]; log[inhibitor(M)] -9.19382
  HDAC1 dose-response data (relative enzyme activity), Fig. 6 + S. Fig. 10: 98.3062 and 98.503
[2]; log[inhibitor(M)] -9.89279
  HDAC1 dose-response data (relative enzyme activity), Fig. 6 + S. Fig. 10: 101.14 and 97.4578
[2]; [10]
  HDAC1 dose-response data (relative enzyme activity), Fig. 6 + S. Fig. 10: 103,131* and 101,221*
[3]
  Ki: 5.57 ± 0.13 µM
[3]; Inhibitor conc [M] -8.49485 (log)
  HDAC8 dose-response data (relative enzyme activity, replicate values), Fig. 6 + S. Fig. 10: 101.387 and 98.0647
[3]; Inhibitor conc [M] -9.19382 (log)
  HDAC8 dose-response data (relative enzyme activity, replicate values), Fig. 6 + S. Fig. 10: 105.308 and 102.184
[3]; Inhibitor conc [M] given as -7.09691 (log)
  HDAC8 dose-response data (relative enzyme activity, replicate values), Fig. 6 + S. Fig. 10: 100.377 and 94.2492
[3]; Inhibitor conc [M] given as -7.79588 (log)
  HDAC8 dose-response data (relative enzyme activity, replicate values), Fig. 6 + S. Fig. 10: 101.512 and 95.1709
[3]; Inhibitor conc [M] given as -9.89279 (log)
  HDAC8 dose-response data (relative enzyme activity, replicate values), Fig. 6 + S. Fig. 10: 102.446 and 100.014
[3]; Inhibitor conc [M] given as -10.585 (log)
  HDAC8 dose-response data (relative enzyme activity, replicate values), Fig. 6 + S. Fig. 10: 102,003* and 99,4628*
[3]; Inhibitor conc [M] -4.30103
  HDAC8 dose-response data (relative enzyme activity), Fig. 6 + S. Fig. 10: 8.643 and 13.2074
[3]; Inhibitor conc [M] -5
  HDAC8 dose-response data (relative enzyme activity), Fig. 6 + S. Fig. 10: 41.9349 and 42.6215
[3]; Inhibitor conc [M] -5.69897
  HDAC8 dose-response data (relative enzyme activity), Fig. 6 + S. Fig. 10: 76.1615 and 76.0658
[3]; Inhibitor conc [M] -6.39794
  HDAC8 dose-response data (relative enzyme activity), Fig. 6 + S. Fig. 10: 95.4429 and 93.9691
[4]
  EC50: 0.00195 µM
[5]
  EC50: 0.00603 µM
[6]
  EC50: > 0.0251 µM
[7]; log[inhibitor(M)] -4.30103
  residual enzymatic activity relative to control wells: 0.99 and 1.47
[7]; log[inhibitor(M)] -5
  residual enzymatic activity relative to control wells: 0.54 and 1.15
[7]; log[inhibitor(M)] -5.69897
  residual enzymatic activity relative to control wells: 2.15 and 1.92
[7]; log[inhibitor(M)] -6.39794
  residual enzymatic activity relative to control wells: 7.05 and 5.56
[7]; log[inhibitor(M)] -7.09691
  residual enzymatic activity relative to control wells: 24.41 and 17.7
[7]; log[inhibitor(M)] -7.79588
  residual enzymatic activity relative to control wells: 54.41 and 42.53
[7]; log[inhibitor(M)] -8.49485
  residual enzymatic activity relative to control wells: 80.22 and 64.16
[7]; log[inhibitor(M)] -9.19382
  residual enzymatic activity relative to control wells: 93.97 and 80.87
[7]; log[inhibitor(M)] -9.89279
  residual enzymatic activity relative to control wells: 97.61 and 89.51
[7]; log[inhibitor(M)] -10.585
  residual enzymatic activity relative to control wells: 98,6* and 92,44*
[8]
  Ki: 0.00766 ± 7e-05 µM
[8]; log[inhibitor(M)] -4.30103
  HDAC3 dose-response data (relative enzyme activity), Fig. 6 + S. Fig. 10: 0.3821 and 0.6391
[8]; log[inhibitor(M)] -5
  HDAC3 dose-response data (relative enzyme activity), Fig. 6 + S. Fig. 10: 2.293 and 2.409
[8]; log[inhibitor(M)] -5.69897
  HDAC3 dose-response data (relative enzyme activity), Fig. 6 + S. Fig. 10: 8.406 and 7.571
[8]; log[inhibitor(M)] -6.39794
  HDAC3 dose-response data (relative enzyme activity), Fig. 6 + S. Fig. 10: 24.6725 and 18.9774
[8]; log[inhibitor(M)] -7.09691
  HDAC3 dose-response data (relative enzyme activity), Fig. 6 + S. Fig. 10: 37.2271 and 35.3982
[8]; log[inhibitor(M)] -7.79588
  HDAC3 dose-response data (relative enzyme activity), Fig. 6 + S. Fig. 10: 64.8472 and 61.8977
[8]; log[inhibitor(M)] -8.49485
  HDAC3 dose-response data (relative enzyme activity), Fig. 6 + S. Fig. 10: 94.5961 and 96.0669
[8]; log[inhibitor(M)] -9.19382
  HDAC3 dose-response data (relative enzyme activity), Fig. 6 + S. Fig. 10: 98.4716 and 100.59
[8]; log[inhibitor(M)] -9.89279
  HDAC3 dose-response data (relative enzyme activity), Fig. 6 + S. Fig. 10: 99.7271 and 104.621
[8]; [10]
  HDAC3 dose-response data (relative enzyme activity), Fig. 6 + S. Fig. 10: 100,6* and 100,492*
[9]
  EC50: > 0.0251 µM
